In data set [1] the test system is NHBA (Neisseria Heparin Binding Antigen), recombinant (Neisseria meningitidis MC58 (serogroup B)). Kind of data set: SPR. Conditions: SPR: Biacore T200, CM5 chip, 1:5 dilution series 1 nM-100 uM, single cycle kinetics; ITC: nano-ITC, PBS-NHBA control (PBS implied); pH and temperature not ….
Data set [2] shares this test system. Kind of data set: ITC. Conditions: SPR: Biacore T200, CM5 chip, 1:5 dilution series 1 nM-100 uM, single cycle kinetics; ITC: nano-ITC, PBS-NHBA control (PBS implied); pH and temperature not ….
The target in data set [3] is T1, NHBA (Neisseria Heparin Binding Antigen), recombinant (Neisseria meningitidis, UniProt Q7DD37).
T1 construct: pET19b, His-tagged; forward primer codes from SPDVK (lipoprotein signal peptide removed); immobilised by amine coupling on CM5 chip
T1 sequence (Q7DD37 25-488): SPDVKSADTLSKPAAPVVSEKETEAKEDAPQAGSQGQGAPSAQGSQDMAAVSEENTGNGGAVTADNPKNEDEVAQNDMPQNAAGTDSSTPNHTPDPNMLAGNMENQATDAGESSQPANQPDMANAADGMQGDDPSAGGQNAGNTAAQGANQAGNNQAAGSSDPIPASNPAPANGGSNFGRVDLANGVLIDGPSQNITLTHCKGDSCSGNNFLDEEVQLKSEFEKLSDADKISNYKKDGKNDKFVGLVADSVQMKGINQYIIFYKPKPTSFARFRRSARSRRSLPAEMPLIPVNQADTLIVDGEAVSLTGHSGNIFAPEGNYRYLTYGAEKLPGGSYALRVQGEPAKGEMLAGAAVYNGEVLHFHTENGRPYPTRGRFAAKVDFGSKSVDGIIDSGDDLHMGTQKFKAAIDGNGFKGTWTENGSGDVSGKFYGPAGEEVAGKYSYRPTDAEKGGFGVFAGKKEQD
Kind of data set: SPR, single cycle kinetics, immobilised NHBA.

Setting [4] is: read-out: KD (μM) (mean ± standard deviation); recombinant NHBA amine-coupled to CM5 chip; glycan in flow.
The mark [5] stands for this setting: recombinant NHBA amine-coupled to CM5 chip; glycan in flow.

Where a name gives a salt, the structure may show the parent alone. Read-outs that look alike come from different tables or passages of the source.

Take “503 bp PCR fragment of N. meningitidis genomic DNA”: the dissociation constant (Kd) was 71 nM in data set [1] and 3330 nM in data set [2].
As for `CC(=O)N[C@H]1C(O)O[C@H](CO)[C@@H](O[C@@H]2O[C@H](CO)[C@H](O[C@H]3O[C@H](CO)[C@H](O)[C@H](O)[C@H]3O)[C@H](O)[C@H]2O)[C@@H]1O` (stereo partly drawn) [2E, P1 antigen], the Kd in data set [3] (setting [4]) was 14.9 ± 3.48 µM.
Take `CC(=O)N[C@H]1C(O)O[C@H](CO)[C@@H](O[C@@H]2O[C@@H](C)[C@@H](O)[C@@H](O)[C@@H]2O)[C@@H]1O[C@@H]1O[C@H](CO)[C@H](O)[C@H](OS(=O)(=O)O)[C@H]1O` (stereo partly drawn) [8A, Sulfo Lewis A]: the dissociation constant Kd in data set [3] (setting [4]) amounted to 33.4 ± 2.54 µM.
Still for that read-out and setting: then `O=S(=O)(O)O[C@@H]1[C@H](O[C@H]2O[C@@H]3CO[C@H]([C@H]2O)[C@H]3O[C@@H]2O[C@H](CO)[C@H](O)[C@H](O[C@H]3O[C@@H]4CO[C@@H]([C@H]4O)[C@H]3O)[C@H]2O)[C@@H](O)C(O)O[C@@H]1CO` (stereo partly drawn) [12B, Neocarratetraose-4^1-O-sulfate (Na+)], with 0.446 ± 0.151 µM; and `CC(=O)N[C@H]1C(O)O[C@H](CO)[C@@H](O)[C@@H]1O[C@@H]1OC(C(=O)O)=C[C@H](O)[C@H]1O` (stereo partly drawn) [13E, Hyaluronan disaccharide ΔDi-HA], with 0.13 ± 0.03 µM.
As for `CC(=O)N[C@H]1C(O)O[C@H](CO)[C@H](OS(=O)(=O)O)[C@@H]1O[C@@H]1OC(C(=O)O)=C[C@H](O)[C@H]1OS(=O)(=O)O` (stereo partly drawn) [chondroitin disaccharide sulfated at 2 of GlcA/IdoA and 4 of GalNAc], the equilibrium dissociation constant (Kd) in data set [3] (setting [5]) stood at 0.5 µM.
`CC(=O)N[C@H]1C(O)O[C@H](COS(=O)(=O)O)[C@H](O)[C@@H]1O[C@@H]1OC(C(=O)O)=C[C@H](O)[C@H]1OS(=O)(=O)O` (stereo partly drawn) [chondroitin sulfate type D disaccharide]: the Kd in data set [3] (setting [5]) stood at 0.0095 µM.
Consider `O=P(O)(O)OC[C@H]1O[C@@H](O)[C@H](O)[C@@H](O)[C@@H]1O` [compound 46, β-Glc6P], for which the Kd in data set [3] (recombinant NHBA amine-coupled to CM5 chip; glycan in flow; read-out: KD (μM) (mean ± standard deviation)) is 0.056 ± 0.025 µM.
